The target of this assay is T1, Glucocorticoid receptor (Homo sapiens, UniProt P04150).
T1 sequence (P04150 whole entry): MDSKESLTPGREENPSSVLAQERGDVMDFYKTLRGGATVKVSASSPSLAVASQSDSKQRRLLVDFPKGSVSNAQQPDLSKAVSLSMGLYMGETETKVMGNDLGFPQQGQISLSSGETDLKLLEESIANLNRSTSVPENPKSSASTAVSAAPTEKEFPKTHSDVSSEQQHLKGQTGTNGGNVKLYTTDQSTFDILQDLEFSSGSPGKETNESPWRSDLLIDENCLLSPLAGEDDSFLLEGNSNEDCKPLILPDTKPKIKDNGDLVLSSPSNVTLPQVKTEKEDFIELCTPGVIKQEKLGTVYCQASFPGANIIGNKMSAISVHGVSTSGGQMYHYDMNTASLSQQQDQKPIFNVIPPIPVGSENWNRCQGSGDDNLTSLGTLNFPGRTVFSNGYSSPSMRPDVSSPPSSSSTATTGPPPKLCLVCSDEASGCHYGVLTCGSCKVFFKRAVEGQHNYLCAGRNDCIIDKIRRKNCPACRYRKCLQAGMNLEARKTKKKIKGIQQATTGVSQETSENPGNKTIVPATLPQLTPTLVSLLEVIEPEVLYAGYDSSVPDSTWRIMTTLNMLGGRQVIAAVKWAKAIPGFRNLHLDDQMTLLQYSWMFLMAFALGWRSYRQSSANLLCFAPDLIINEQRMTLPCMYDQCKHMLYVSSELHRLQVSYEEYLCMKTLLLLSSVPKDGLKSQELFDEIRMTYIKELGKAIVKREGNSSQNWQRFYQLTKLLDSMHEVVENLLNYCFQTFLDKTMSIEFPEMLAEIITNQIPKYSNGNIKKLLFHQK
Description: Binding affinity to glucocorticoid receptor by Fluorescence polarization.

Molecules are shown by their SMILES.

For `COc1ccc(F)cc1C(C)(C)C[C@](O)(Cc1ccc(Cl)cc1)C(F)(F)F`, the concentration for half-maximal inhibition (IC50) was determined as 2 µM.
The value for `COc1ccc(F)cc1C(C)(C)C[C@@](O)(Cc1ccc(Cl)cc1)C(F)(F)F` was 0.099 µM.

Values taken from ChEMBL document CHEMBL1149439, “A concise asymmetric route for the synthesis of a novel class of glucocorticoid mimetics containing a trifluoromethyl-substituted alcohol” (Bioorg Med Chem Lett, 2006).
